Measured values as given in article PMC11814485, “Screening of homing and tissue-penetrating peptides by microdialysis and in vivo phage display” (Life Science Alliance, 2025).

Assays:
retina (OIR model) = assay: Homing of FAM-peptides to retina and vitreous in oxygen-induced retinopathy (OIR) and to normal retina; assay type: in vivo, mouse (C57BL/6Rj); conditions: for peptide accumulation in the vitreous of the OIR retina relative to the control peptide / area of positive staining in OIR retina relative to a control peptide: OIR mice P17, 5 mg/kg, 120 min circulation, anti-FAM; for area of positive staining in OIR retina relative to a control peptide: N = 8; for homing signal in OIR retinas around retinal and preretinal blood vessels: OIR mice P17, 120 min, anti-FAM staining
Description: Figure 3. Microdialysis-captured peptides home to skin wounds and penetrate blood–retina barrier in retinopathy. Systemically administered homing peptides CDD, CPK, and CYH accumulate in skin wounds and penetrate blood–retina barrier in retinopathy. Full-thickness wounds, 6 mm in diameter, in the back skin of 8-wk-old male mice were used. After 7 d, each peptide or PBS was injected into the tail vein. For retinopathy experiments, oxygen-induced retinopathy (OIR) was induced by placing mouse pups at day P7 in a hyperoxia chamber for 5 d. On P17, when the angiogenesis peaks in this OIR model, the peptides were injected into the tail vein. The peptides circulated for 150 min (wounds) and 120 min (OIR) before the vasculature was thoroughly perfused. The skin wounds and eyeballs were fixed, and histological samples stained with anti-FAM and hematoxylin. Peptide homing was quantified with the automated image analysis system. (A) Microdialysis-identified peptides home to skin wounds. […] (D) All three microdialysis-identified peptides also accumulate substantially in the vitreous in the OIR model. *P < 0.05, **P < 0.01, ***< 0.001. Each datapoint represents an individual wound, retina, or vitreous. N = 3 for skin wound, and N = 6 and N = 8 for normal and OIR retinas.
We wanted to explore whether the new wound-penetrating peptides externalize and penetrate tissues that have an additional barrier around the blood vessels. The retinal blood vessels have an additional element, blood–retina barrier (BRB) that hinders the access of systemically administered drugs to retina ([Lahdenranta et al, 2007]; [Sweeney et al, 2019]; [Vähätupa, et al, 2020b]). Thus, we explored the homing of the new peptides to the normal retina and to the retinal angiogenesis in the oxygen-induced retinopathy (OIR) model ([Vähätupa, et al, 2020b]). […] Next, we quantified the area of positive staining in the retina. There was ninefold more of CYH (P < 0.01) and 120-fold and 88-fold more of CDD and CPK than of a control peptide in OIR retinas (P < 0.0001 for the CDD and CPK peptides) (Fig 3C).
Figure 4. Microdialysis-captured peptides home and penetrate to retina in retinopathy. The CDD, CPK, and CYH peptides accumulate in the retina and vitreous in oxygen-induced retinopathy (OIR). The OIR model was carried out as described previously ([Vähätupa et al, 2020b]). At P17, the peptides were injected into the tail vein and circulated for 120 min before the vasculature was thoroughly perfused. The eyeballs were fixed and histological sections stained with anti-FAM antibody and hematoxylin. (A) None of the tested peptides homed to the normal retina after the systemic administration at P17. (B) Three microdialysis-identified homing peptides homed and penetrated into the retina in OIR at the peak of angiogenesis at P17. The peptides also accumulate in the vitreous in the OIR model. (A, B, C) High-magnification images of peptide accumulation in OIR retina. The scale bar is 100 μm for (A, B) and 20 μm for (C). Images are representative of N = 6 and N = 8 for normal and OIR retinas.
WT C57BL/6Rj mice were used for the OIR experiments ([Vähätupa, et al, 2020a]). The OIR model was performed as described in detail previously ([Vähätupa, et al, 2020a]; [De Rossi et al, 2021]). Briefly, to induce retinopathy in the retina, the pups and their nursing mothers were exposed to 75% oxygen in a custom-made chamber (ProOx P110 oxygen controller; BioSpherix Ltd.) at postnatal day 7 (P7) for 5 d until P12 when they were returned to normal room air. The homing experiments were performed at P17 (late hypoxic phase and the peak of neovascularization) ([Vähätupa et al, 2021]). Control animals were housed under normal room air conditions, and retinas were harvested on the corresponding day (P17). All retina experiments were conducted under the ARVO Statement for the Use of Animals in Ophthalmic and Vision Research guidelines. […]

CHO-K cells = assay: Peptide internalization in vitro, confocal imaging, CHO-K cells; assay type: cell-based, Chinese hamster; conditions: FAM-labeled peptide 20 μM, 3 h, 37°C, confocal fluorescence imaging, representative of three experiments
Description: Figure 1. Microdialysis-captured peptides penetrate the cell membrane. […] CHO-K cells were grown on chamber slides. […] The scale bar is 20 μm. Images are representative of three individual experiments.
Plain growth medium was used as a negative control.

| Sequence | peptide accumulation in the vitreous of the OIR retina relative to the control peptide (retina (OIR model)) [×] | area of positive staining in OIR retina relative to a control peptide (retina (OIR model)) | homing signal in OIR retinas around retinal and preretinal blood vessels (retina (OIR model)) | cellular uptake in CHO-K cells (CHO-K cells) |
| --- | --- | --- | --- | --- |
| CDDYQQISC [FAM-labeled synthetic peptide …] | 67.2 | 120 fold | strong homing signal | accumulate in the CHO-K cells |
| CPKKHHLDC [FAM-labeled synthetic peptide …] | 80.3 | 88 fold | strong homing signal | accumulate in the CHO-K cells |
| CYHDTYPNC [FAM-labeled synthetic peptide …] | 16.9 | ninefold | strong homing signal | accumulate in the CHO-K cells |
